The target of assay [1] is T1, DYRK1A (Homo sapiens, UniProt Q13627). Nature of the assay: Cellular DYRK1 autophosphorylation assay in U2-OS cells. Also noted: full-length, wild-type human DYRK1A (NM_001396) with an HA tag; expressed in transfected cells; host or cells: human U2-OS osteosarcoma cells, transient transfection of a pcDNA3.1 plasmid. The class given is cell-based. The settings on record: U2-OS cells transfected with HA-tagged human DYRK1A, 5 hours exposure; read-out: IC50 (μM) P-Ser520-Dyrk1A -Cell assay. In short, it runs like this:
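U2-OS cells treated with a compound concentration range for 5 h. Phospho-Ser520-DYRK1A measured by western blot densitometry or Mesoscale ELISA. IC50 from dose-response curves; for blots, ratio of phospho-Ser520 to total DYRK1A signal.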

Another assay deals with T2, DYRK1B (Homo sapiens, UniProt Q9Y463).
T2 construct: full-length human kinases from Carna Biosciences; purchased Carna Biosciences 04-131
Description: Kinase TR-FRET assay, DYRK1B. In kind it is biochemical. Conditions: full-length human kinase, 10 μM ATP. The procedure, abridged:
(§1)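 Compounds tested at 0.1 nM to 30 μM in reaction buffer; reaction stopped with 10 mM EDTA. Phosphorylated MBP detected with 1 nM Europium-labelled anti-phospho-Thr232 antibody by TR-FRET.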

The target of assay [2] is T1, DYRK1A. Description: Kinase TR-FRET assay, DYRK1A. The class given is biochemical. Conditions: full-length human kinase, 10 μM ATP. More on the design: full-length, wild-type human DYRK1A (NM_001396) with an HA tag; expressed in transfected cells; host or cells: human U2-OS osteosarcoma cells, transient transfection of a pcDNA3.1 plasmid. In short, it runs like this:
as §1

In another assay the target is T3, CLK1 (Homo sapiens, UniProt P49759).
T3 construct: full-length human kinases from Carna Biosciences; purchased Carna Biosciences 04-126
Description: Kinase TR-FRET assay, CLK1. The class given is biochemical. Conditions: full-length human kinase, 10 μM ATP. As for the experimental part:
Inhibition of the enzymatic activity of human kinases was evaluated in a Time-Resolved Fluorescence Resonance Energy Transfer (TR-FRET) assay in 384-well reaction plates. […] Test compounds of the invention were added in reaction buffer at a range of concentrations from 0.1 nM to 30 μM. Following addition of EDTA (Sigma E7889, 10 mM) to stop the reaction, Europium-labelled mouse monoclonal antibody recognizing phospho-Thr232 in MBP (Perkin Elmer TRF0201, 1 nM) was added.

For a further assay, the target named is T4, CDK9 (Homo sapiens, UniProt P50750).
T4 construct: full-length human kinases from Carna Biosciences; purchased Carna Biosciences 04-110
Nature of the assay: Kinase TR-FRET assay, CDK9. The class given is biochemical. The settings on record: full-length human kinase, 10 μM ATP. The procedure, abridged: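 Full-length human CDK9 (0.9 ng/μl) incubated 100 min at room temperature with 10 μM ATP, 100 nM ULight-MBP peptide and compound (0.1 nM–30 μM) in 50 mM HEPES pH 7.4, 1 mM EGTA, 10 mM MgCl2, 2 mM DTT, 0.01% Tween20. Stopped with 10 mM EDTA, then 1 nM Eu-anti-phospho-Thr232 MBP antibody added for 1 h. TR-FRET read at 665/620 nm with 340 nm excitation.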

Assay [3] has as its target T5, His-TEV-DYRK1A Kinase domain (aa127-485) (Homo sapiens, UniProt Q13627).
T5 construct: His-TEV-DYRK1A Kinase domain (aa127-485); His tag (N); TEV protease cleavage site (N)
Description: Kinase ADP assay (ADP Hunter), DYRK1A kinase domain. The settings on record: 20 μM ATP. In kind it is biochemical. In short, it runs like this: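 Compounds incubated 10 min at 30 °C with 20 nM enzyme, 40 μM peptide substrate and 20 μM ATP in pH 7.4 Hepes buffer with 10 mM MgCl2. ADP formed detected by ADP Hunter Plus reagents after 20 min at 30 °C, fluorescence read at 590 nm.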

T2 sequence (Q9Y463 whole entry): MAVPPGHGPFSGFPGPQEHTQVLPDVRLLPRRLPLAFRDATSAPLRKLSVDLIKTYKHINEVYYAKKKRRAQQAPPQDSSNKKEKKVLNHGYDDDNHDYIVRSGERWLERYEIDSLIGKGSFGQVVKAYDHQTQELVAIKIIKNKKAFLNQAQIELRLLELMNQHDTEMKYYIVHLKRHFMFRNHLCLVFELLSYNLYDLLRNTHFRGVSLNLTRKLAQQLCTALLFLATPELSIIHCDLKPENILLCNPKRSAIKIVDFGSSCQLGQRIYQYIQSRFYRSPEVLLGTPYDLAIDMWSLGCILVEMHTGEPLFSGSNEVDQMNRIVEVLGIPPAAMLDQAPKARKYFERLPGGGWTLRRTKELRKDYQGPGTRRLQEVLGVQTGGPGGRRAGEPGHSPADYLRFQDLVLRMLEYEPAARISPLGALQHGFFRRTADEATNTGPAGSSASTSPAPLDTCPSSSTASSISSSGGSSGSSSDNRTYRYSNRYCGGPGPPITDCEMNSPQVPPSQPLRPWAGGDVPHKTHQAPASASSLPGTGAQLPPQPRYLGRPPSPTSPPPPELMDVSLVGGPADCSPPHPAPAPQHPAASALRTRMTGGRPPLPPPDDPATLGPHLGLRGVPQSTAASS
T4 sequence (P50750 whole entry): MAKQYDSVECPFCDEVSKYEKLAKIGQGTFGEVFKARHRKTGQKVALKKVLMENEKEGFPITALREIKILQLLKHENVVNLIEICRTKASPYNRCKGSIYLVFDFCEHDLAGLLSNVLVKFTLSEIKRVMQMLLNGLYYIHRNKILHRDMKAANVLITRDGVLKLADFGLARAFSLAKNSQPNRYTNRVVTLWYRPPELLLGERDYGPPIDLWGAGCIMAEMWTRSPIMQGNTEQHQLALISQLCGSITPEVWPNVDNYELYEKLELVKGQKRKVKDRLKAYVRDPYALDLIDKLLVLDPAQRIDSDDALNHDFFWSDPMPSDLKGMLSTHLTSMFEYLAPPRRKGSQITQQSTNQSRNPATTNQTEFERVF
T4 sequence (O60563 whole entry partner): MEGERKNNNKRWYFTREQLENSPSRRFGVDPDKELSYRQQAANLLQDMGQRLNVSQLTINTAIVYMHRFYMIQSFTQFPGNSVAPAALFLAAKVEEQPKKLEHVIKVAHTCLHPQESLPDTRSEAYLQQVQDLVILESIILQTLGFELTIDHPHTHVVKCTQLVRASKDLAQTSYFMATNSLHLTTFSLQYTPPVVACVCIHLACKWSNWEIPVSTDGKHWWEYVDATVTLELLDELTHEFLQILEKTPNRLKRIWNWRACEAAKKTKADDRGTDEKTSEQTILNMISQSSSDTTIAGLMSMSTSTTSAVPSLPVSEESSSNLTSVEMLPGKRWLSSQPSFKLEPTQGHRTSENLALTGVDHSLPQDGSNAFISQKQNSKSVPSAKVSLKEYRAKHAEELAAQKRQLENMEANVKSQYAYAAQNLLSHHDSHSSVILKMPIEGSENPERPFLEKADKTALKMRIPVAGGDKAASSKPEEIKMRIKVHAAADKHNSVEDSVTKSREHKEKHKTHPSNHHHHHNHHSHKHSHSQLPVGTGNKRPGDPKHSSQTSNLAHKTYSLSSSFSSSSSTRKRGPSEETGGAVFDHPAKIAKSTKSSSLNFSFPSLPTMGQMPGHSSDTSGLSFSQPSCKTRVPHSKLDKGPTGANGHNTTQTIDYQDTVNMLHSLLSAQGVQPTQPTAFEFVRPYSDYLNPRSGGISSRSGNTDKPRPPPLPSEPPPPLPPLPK
T3 sequence (P49759 1-526 isoform P49759-3): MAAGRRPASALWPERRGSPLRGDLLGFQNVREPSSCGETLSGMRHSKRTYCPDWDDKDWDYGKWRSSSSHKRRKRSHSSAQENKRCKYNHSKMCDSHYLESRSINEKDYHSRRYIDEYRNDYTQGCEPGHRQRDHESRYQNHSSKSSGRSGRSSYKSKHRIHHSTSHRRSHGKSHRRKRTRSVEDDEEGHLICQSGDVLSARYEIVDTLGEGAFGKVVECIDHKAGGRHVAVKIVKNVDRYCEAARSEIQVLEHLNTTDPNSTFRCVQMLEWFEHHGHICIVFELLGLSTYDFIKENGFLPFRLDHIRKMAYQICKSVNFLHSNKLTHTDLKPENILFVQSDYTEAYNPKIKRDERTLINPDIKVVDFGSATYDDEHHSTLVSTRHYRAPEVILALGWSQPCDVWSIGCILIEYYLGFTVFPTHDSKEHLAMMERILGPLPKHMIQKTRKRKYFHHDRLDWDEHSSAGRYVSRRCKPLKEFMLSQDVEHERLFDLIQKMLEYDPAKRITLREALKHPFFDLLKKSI

In the case of `Cc1nc2ccc(-c3cc(N)nc(N)c3)nc2n1C1CCC1` [Example 23, 4-(3-cyclobutyl-2-methyl-3H-imidazo[4,5-b]pyridin-5-yl)pyridine-2,6-diamine], the IC50 at DYRK1A [1] was 0.017 µM; at DYRK1B, 0.008 µM; on DYRK1A [2], 0.002 µM; against CLK1 it was 0.012 µM; at CDK9 it was 0.57 µM; in assay [3], 0.006 µM.
As to `Cc1nc2ccc(-c3cc(N)nc(N)c3)nc2n1CCc1cccc(C(F)(F)F)c1` [Example 91, 4-(2-methyl-3-{2-[3-(trifluoromethyl)phenyl]ethyl}-3H-imidazo[4,5-b]pyridin-5-yl)pyridine-2,6-diamine], the IC50 amounted to 0.062 µM on DYRK1A [1]; 0.008 µM against DYRK1B; 0.004 µM against DYRK1A [2]; 0.016 µM on CLK1; 2.92 µM against CDK9; 0.013 µM in assay [3].
Consider `Cc1nc2ccc(-c3cc(N)nc(N)c3)nc2n1CCc1ccc(F)cc1` [Example 96, 4-{3-[2-(4-fluorophenyl)ethyl]-2-methyl-3H-imidazo[4,5-b]pyridin-5-yl}pyridine-2,6-diamine], for which the IC50 on DYRK1A [1] was found to be 0.075 µM; on DYRK1B, 0.01 µM; on DYRK1A [2] it was 0.004 µM; against CLK1 it was 0.02 µM; on CDK9, 3.09 µM; in assay [3] it was 0.011 µM.
Regarding `N#Cc1nc2ccc(-c3cc(N)nc(N)c3)nc2n1CCOc1ccccc1` [Example 222, 5-(2,6-diaminopyridin-4-yl)-3-(2-phenoxyethyl)-3H-imidazo[4,5-b]pyridine-2-carbonitrile], the IC50 at DYRK1A [1] is 0.244 µM; at DYRK1B, 0.031 µM; at DYRK1A [2], 0.018 µM; on CLK1 it was 0.062 µM; against CDK9 it was > 3 µM; in assay [3] it was 0.023 µM.
Take `Cc1nc2ccc(-c3cc(N)nc(N)c3)nc2n1CC1CCCC1` [Example 89, 4-[3-(cyclopentylmethyl)-2-methyl-3H-imidazo[4,5-b]pyridin-5-yl]pyridine-2,6-diamine]: the IC50 on DYRK1A [1] is 0.068 µM; on DYRK1B it was 0.009 µM; at DYRK1A [2] it was 0.004 µM; at CLK1 it was 0.024 µM; against CDK9 it was 1.46 µM; in assay [3] it was 0.014 µM.
As for `Cc1nc2ccc(-c3cc(N)nc(N)c3)nc2n1CC(F)F` [Example 115, 4-[3-(2,2-difluoroethyl)-2-methyl-3H-imidazo[4,5-b]pyridin-5-yl]pyridine-2,6-diamine], the IC50 on DYRK1A [1] stood at 0.034 µM; at DYRK1B, 0.006 µM; at DYRK1A [2], 0.003 µM; at CLK1 it was 0.028 µM; against CDK9, 5.69 µM; in assay [3], 0.013 µM.
For `CCCCn1c(C)nc2ccc(-c3cc(N)nc(N)c3)nc21` [Example 148, 4-(3-butyl-2-methyl-3H-imidazo[4,5-b]pyridin-5-yl)pyridine-2,6-diamine], the IC50 is 0.1 µM on DYRK1A [1]; 0.006 µM on DYRK1B; 0.002 µM at DYRK1A [2]; 0.016 µM on CLK1; 1.24 µM at CDK9; 0.007 µM in assay [3].
Take `Cc1nc2ccc(-c3cc(N)nc(N)c3)nc2n1CCOc1cccc(F)c1` [Example 199, 4-{3-[2-(3-fluorophenoxy)ethyl]-2-methyl-3H-imidazo[4,5-b]pyridin-5-yl}pyridine-2,6-diamine]: the IC50 at DYRK1A [1] stood at 0.053 µM; on DYRK1B it was 0.007 µM; at DYRK1A [2], 0.003 µM; against CLK1, 0.016 µM; against CDK9, 1.1 µM; in assay [3], 0.012 µM.
With `CCCCCCn1c(C)nc2ccc(-c3cc(N)nc(N)c3)nc21` [Example 94, 4-(3-hexyl-2-methyl-3H-imidazo[4,5-b]pyridin-5-yl)pyridine-2,6-diamine], the IC50 at DYRK1A [1] is 0.017 µM; against DYRK1B, 0.007 µM; on DYRK1A [2], 0.003 µM; at CLK1, 0.016 µM; against CDK9, 1.08 µM; in assay [3], 0.005 µM.
`Nc1cc(-c2ccc3nc(Cl)n(C4CCCC4)c3n2)cc(N)n1` [Example 220, 4-(2-chloro-3-cyclopentyl-3H-imidazo[4,5-b]pyridin-5-yl)pyridine-2,6-diamine]: the half-inhibitory concentration (IC50) on DYRK1A [1] was found to be 0.075 µM; against DYRK1B, 0.013 µM; against DYRK1A [2], 0.003 µM; against CLK1, 0.019 µM; on CDK9, 0.724 µM; in assay [3] it was 0.011 µM.
Take `CCCCc1nc2ccc(-c3cc(N)nc(N)c3)nc2n1CCCC` [Example 144, 4-(2,3-dibutyl-3H-imidazo[4,5-b]pyridin-5-yl)pyridine-2,6-diamine]: the IC50 on DYRK1A [1] is 0.128 µM; against DYRK1B, 0.012 µM; at DYRK1A [2] it was 0.008 µM; on CLK1, 0.238 µM; on CDK9, > 3 µM; in assay [3], 0.016 µM.
Consider `Cc1nc2ccc(-c3cc(N)nc(N)c3)nc2n1C[C@@H](C)Oc1cccc(Cl)n1` (single isomer, unassigned) [Example 177], for which the IC50 at DYRK1A [1] stood at 0.042 µM; on DYRK1B, 0.005 µM; on DYRK1A [2], 0.005 µM; against CLK1 it was 0.017 µM; at CDK9, 0.554 µM; in assay [3] it was 0.014 µM.
In the case of `Cc1nc2ccc(-c3cc(N)nc(N)c3)nc2n1CCOc1ccccc1` [Example 153, 4-[2-methyl-3-(2-phenoxyethyl)-3H-imidazo[4,5-b]pyridin-5-yl]pyridine-2,6-diamine], the IC50 on DYRK1A [1] was 0.035 µM; on DYRK1B it was 0.003 µM; on DYRK1A [2], 0.001 µM; against CLK1, 0.016 µM; on CDK9 it was 1.02 µM; in assay [3], 0.01 µM.
Turning to `N#Cc1nc2ccc(-c3cc(N)nc(N)c3)nc2n1C1CCCC1` [Example 221, 3-cyclopentyl-5-(2,6-diaminopyridin-4-yl)-3H-imidazo[4,5-b]pyridine-2-carbonitrile], the IC50 was 0.043 µM at DYRK1A [1]; 0.012 µM at DYRK1B; 0.027 µM at DYRK1A [2]; 0.016 µM against CLK1; 0.317 µM at CDK9; 0.008 µM in assay [3].
Turning to `Cc1nc2ccc(-c3cc(N)nc(N)c3)nc2n1C[C@@H](C)Oc1ccccn1` (single isomer, unassigned) [Example 175], the IC50 on DYRK1A [1] was 0.131 µM; on DYRK1B it was 0.016 µM; against DYRK1A [2], 0.007 µM; on CLK1, 0.04 µM; on CDK9, > 3 µM; in assay [3] it was 0.02 µM.
Take `Cc1nc2ccc(-c3cc(N)nc(N)c3)nc2n1CCOc1cccc(Cl)c1` [Example 200]: the IC50 on DYRK1A [1] turned out to be 0.069 µM; against DYRK1B it was 0.01 µM; at DYRK1A [2], 0.005 µM; against CLK1, 0.02 µM; at CDK9, 1.52 µM; in assay [3], 0.018 µM.
For the compound `C=CCn1c(C)nc2ccc(-c3cc(N)nc(N)c3)nc21` [Example 51, 4-[2-methyl-3-(prop-2-en-1-yl)-3H-imidazo[4,5-b]pyridin-5-yl]pyridine-2,6-diamine], the IC50 at DYRK1A [1] is 0.038 µM; against DYRK1B, 0.001 µM; against DYRK1A [2], 0.006 µM; at CLK1 it was 0.029 µM; against CDK9 it was 4.37 µM; in assay [3] it was 0.007 µM.
